One block for each compound: values may come before it.
How the values were obtained:
[1] = Inhibition of IDH2 R172S mutant (unknown origin); parameters: species or system Homo sapiens
[2] = Downregulation of HoxA9 expression in human AML3 cells; assay type: functional, cell-based
HCT-116 = assay: Antiproliferative activity against human HCT-116 cells; assay type: functional, cell-based
[3] = molecular target: Isocitrate dehydrogenase [NADP], mitochondrial (Homo sapiens, UniProt P48735, R172K); assay: Inhibition of FLAG-tagged IDH2 R172K mutant (unknown origin) extracted from baculovirus infected Sf9 cells
Chain of Isocitrate dehydrogenase [NADP], mitochondrial (Homo sapiens, UniProt P48735, R172K) (P48735 40-452 R172K limits assumed): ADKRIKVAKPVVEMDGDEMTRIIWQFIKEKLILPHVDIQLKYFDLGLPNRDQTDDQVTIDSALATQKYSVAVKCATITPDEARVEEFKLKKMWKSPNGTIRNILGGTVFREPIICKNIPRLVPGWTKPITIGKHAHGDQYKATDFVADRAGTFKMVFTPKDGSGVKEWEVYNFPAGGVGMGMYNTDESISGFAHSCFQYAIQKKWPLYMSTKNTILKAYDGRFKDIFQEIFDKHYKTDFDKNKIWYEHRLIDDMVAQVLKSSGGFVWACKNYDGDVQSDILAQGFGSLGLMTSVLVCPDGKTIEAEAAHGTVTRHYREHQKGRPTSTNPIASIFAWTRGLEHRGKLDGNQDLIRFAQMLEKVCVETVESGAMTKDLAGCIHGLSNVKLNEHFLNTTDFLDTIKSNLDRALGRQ

U-87 MG = assay: Antiproliferative activity against human U87; assay type: functional, cell-based, U-87MG ATCC
[4] = molecular target: Isocitrate dehydrogenase [NADP], mitochondrial (Homo sapiens, UniProt P48735, R140Q); assay: Inhibition of FLAG-tagged IDH2 R140Q mutant (unknown origin) extracted from baculovirus infected Sf9 cells
Chain of Isocitrate dehydrogenase [NADP], mitochondrial (Homo sapiens, UniProt P48735, R140Q) (P48735 40-452 R140Q limits assumed): as the sequence (P48735 40-452 R172K limits assumed) above, with R101Q, K133R counted along it

TF-1 = assay: Antiproliferative activity against human TF-1 cells; assay type: functional, cell-based

IC50 [1]: 1030 nM
Compound: C[C@H](O)c1cccc(NC(=O)c2nn(Cc3ccc(F)cc3)c3c2CN(C(=O)c2ccc[nH]2)C[C@H]3C)c1

IC50 [2]: 60 nM
Compound: C[C@H]1C[C@@H](n2c(Nc3ccc(OC(F)(F)F)cc3)nc3cc(CCC(=O)O)ccc32)CC(C)(C)C1 [BAY1436032]

Compound: CC(C)(O)CNc1nc(Nc2ccnc(C(F)(F)F)c2)nc(-c2cccc(C(F)(F)F)n2)n1 [ENASIDENIB]
IC50 (HCT-116): 530 nM | IC50 [3]: 200 nM | IC50 (U-87 MG): 10 nM | IC50 [4]: 320 nM | IC50 (TF-1): 20 nM

Reference: ChEMBL document CHEMBL6103547, “Comprehensive exploration of isocitrate dehydrogenase (IDH) mutations: Tumorigenesis, drug discovery, and covalent inhibitor advances” (Eur J Med Chem, 2025)
